Measurements: the supplement of paper PMC10307832

compound: CN1CCN(CC1)C2=CC(=C(C=C2)NC3=NC=C4C(=N3)N(C5=CC=CC=C5C(=O)N4C)C)OC [XMD8-85] + CC(=O)Nc1cccc(-n2c(=O)n(C3CC3)c(=O)c3c(Nc4ccc(I)cc4F)n(C)c(=O)c(C)c32)c1 [Trametinib] (partner 0.02 µM); assay: relative viability (nuclei count vs DMSO), 5 days (fraction); higher = more cells survive; settings: first compound 0.08 µM
Procedure, shortened: (§1)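 Relative viability is defined as nuclei in treated wells over nuclei in vehicle wells. Duplicate plates were run and medians reported. Lung cancer cell lines in 1536-well plates were dosed by pin tool one day after seeding, with one drug or with a fixed anchor-drug dose plus five library-drug doses (not always all listed) in √10 steps, and nuclei were counted after 5 days.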

Point of comparison: PC-14, relative viability 0.733. Against it:
- PC-3 [JPC-3] — lower, 0.672
- RERF-LC-KJ — higher, 0.887
- SK-LU-1 — lower, 0.425
- SW 1573 — lower, 0.542
- UMC-11 — lower, 0.723

same assay, conditions: first compound 0.253 µM

Point of comparison: UMC-11, relative viability 0.738. Against it:
- PC-3 [JPC-3] — higher, 0.83
- PC-14 — lower, 0.703
- RERF-LC-KJ — higher, 0.853
- SK-LU-1 — lower, 0.469
- SW 1573 — lower, 0.522

same assay, conditions: first compound 0.8 µM

Point of comparison: SK-LU-1, relative viability 0.53. Against it:
- PC-3 [JPC-3] — higher, 0.75
- PC-14 — higher, 0.756
- RERF-LC-KJ — higher, 0.873
- SW 1573 — higher, 0.594
- UMC-11 — higher, 0.696

same assay, conditions: first compound 2.53 µM

Point of comparison: SW 1573, relative viability 0.427. Against it:
- PC-3 [JPC-3] — higher, 0.717
- PC-14 — higher, 0.6
- RERF-LC-KJ — higher, 0.904
- SK-LU-1 — higher, 0.508
- UMC-11 — higher, 0.683

same assay, conditions: first compound 8 µM

Point of comparison: SK-LU-1, relative viability 0.367. Against it:
- PC-3 [JPC-3] — higher, 0.599
- PC-14 — lower, 0.306
- RERF-LC-KJ — higher, 0.727
- SW 1573 — lower, 0.262
- UMC-11 — higher, 0.403

compound: CN1CCN(CC1)C2=CC(=C(C=C2)NC3=NC=C4C(=N3)N(C5=CC=CC=C5C(=O)N4C)C)OC [XMD8-85] + CC(C)C[C@H](NC(=O)[C@H](Cc1ccccc1)NC(=O)c1cnccn1)B(O)O [Bortezomib] (partner 0.002 µM); assay: as above; settings: first compound 0.08 µM
Procedure, shortened: as §1

Point of comparison: SW 1573, relative viability 0.881. Against it:
- PC-3 [JPC-3] — lower, 0.701
- PC-14 — lower, 0.794
- RERF-LC-KJ — higher, 0.937
- SK-LU-1 — higher, 0.93
- UMC-11 — lower, 0.538

same assay, conditions: first compound 0.253 µM

Point of comparison: SW 1573, relative viability 1.34. Against it:
- PC-3 [JPC-3] — lower, 0.824
- PC-14 — lower, 0.964
- RERF-LC-KJ — lower, 1.07
- SK-LU-1 — lower, 0.926
- UMC-11 — lower, 0.577

same assay, conditions: first compound 0.8 µM

Point of comparison: SW 1573, relative viability 1.02. Against it:
- PC-3 [JPC-3] — lower, 0.736
- PC-14 — lower, 0.821
- RERF-LC-KJ — higher, 1.06
- UMC-11 — lower, 0.903

same assay, conditions: first compound 2.53 µM

Point of comparison: SW 1573, relative viability 1.03. Against it:
- PC-3 [JPC-3] — lower, 0.968
- PC-14 — lower, 0.935
- RERF-LC-KJ — higher, 1.2
- SK-LU-1 — higher, 1.42
- UMC-11 — lower, 0.852

same assay, conditions: first compound 8 µM

Point of comparison: SK-LU-1, relative viability 0.84. Against it:
- PC-3 [JPC-3] — lower, 0.732
- PC-14 — lower, 0.596
- RERF-LC-KJ — lower, 0.742
- SW 1573 — lower, 0.639
- UMC-11 — lower, 0.373

compound: CN1CCN(CC1)C2=CC(=C(C=C2)NC3=NC=C4C(=N3)N(C5=CC=CC=C5C(=O)N4C)C)OC [XMD8-85] + Nc1ncn([C@H]2C[C@H](O)[C@@H](CO)O2)c(=O)n1 [Decitabine] (partner 2 µM); assay: as above; settings: first compound 0.08 µM
Procedure, shortened: as §1

Point of comparison: PC-3 [JPC-3], relative viability 0.93. Against it:
- PC-14 — lower, 0.275
- SK-LU-1 — lower, 0.607
- SW 1573 — lower, 0.465
- UMC-11 — lower, 0.568

same assay, conditions: first compound 0.253 µM

Point of comparison: UMC-11, relative viability 0.618. Against it:
- PC-14 — lower, 0.276
- RERF-LC-KJ — higher, 0.703
- SK-LU-1 — lower, 0.58
- SW 1573 — lower, 0.529

same assay, conditions: first compound 0.8 µM

Point of comparison: SK-LU-1, relative viability 0.61. Against it:
- PC-3 [JPC-3] — higher, 0.8
- PC-14 — lower, 0.223
- RERF-LC-KJ — higher, 0.811
- UMC-11 — lower, 0.594

same assay, conditions: first compound 2.53 µM

Point of comparison: SW 1573, relative viability 0.522. Against it:
- PC-3 [JPC-3] — higher, 1.06
- PC-14 — lower, 0.162
- RERF-LC-KJ — higher, 0.767
- SK-LU-1 — higher, 0.705
- UMC-11 — higher, 0.545

same assay, conditions: first compound 8 µM

Point of comparison: UMC-11, relative viability 0.544. Against it:
- PC-3 [JPC-3] — higher, 0.745
- PC-14 — lower, 0.133
- RERF-LC-KJ — lower, 0.496
- SK-LU-1 — higher, 0.549
- SW 1573 — lower, 0.338

compound: O=C(O)C(Cc1ccccc1[N+](=O)[O-])=NNc1nc(-c2ccc(Cl)c(Cl)c2)cs1 (mixture of isomers) [4EGI-1] + C[C@@H](Oc1cc(-c2cnn(C3CCNCC3)c2)cnc1N)c1c(Cl)ccc(F)c1Cl [Crizotinib] (partner 1 µM); assay: as above; settings: first compound 0.5 µM
Procedure, shortened: as §1

Point of comparison: RERF-LC-KJ, relative viability 0.852. Against it:
- PC-3 [JPC-3] — higher, 0.998
- PC-14 — higher, 1.08
- SK-LU-1 — higher, 0.891
- SW 1573 — higher, 0.937
- UMC-11 — lower, 0.718

same assay, conditions: first compound 1.581 µM

Point of comparison: SW 1573, relative viability 0.842. Against it:
- PC-3 [JPC-3] — higher, 0.883
- PC-14 — lower, 0.617
- RERF-LC-KJ — lower, 0.676
- SK-LU-1 — higher, 1.05
- UMC-11 — lower, 0.594

same assay, conditions: first compound 5 µM

Point of comparison: UMC-11, relative viability 0.643. Against it:
- PC-3 [JPC-3] — higher, 0.876
- PC-14 — higher, 0.875
- RERF-LC-KJ — higher, 0.815
- SK-LU-1 — higher, 0.943
- SW 1573 — higher, 0.87

same assay, conditions: first compound 15.81 µM

Point of comparison: SW 1573, relative viability 0.722. Against it:
- RERF-LC-KJ — lower, 0.675
- SK-LU-1 — lower, 0.688
- UMC-11 — lower, 0.602

same assay, conditions: first compound 50 µM

Point of comparison: RERF-LC-KJ, relative viability 0.684. Against it:
- PC-3 [JPC-3] — lower, 0.55
- PC-14 — higher, 0.907
- SK-LU-1 — lower, 0.334
- SW 1573 — lower, 0.424
- UMC-11 — lower, 0.314
